Source: article PMC4875962 (Clinical Pharmacokinetics, 2015)
Like-named read-outs stand apart in the source and are kept apart here.

How the values were obtained:
Caco-2 cells = conditions: cited from earlier work
CYPs = conditions: read-out: IC50, inhibitory effect on CYPs; cited from earlier work
OAT1 = conditions: read-out: IC50, inhibitory effect on OAT1; cited from earlier work
OCT1 = conditions: read-out: IC50, inhibitory effect on OCT1; cited from earlier work
[1] = cited from earlier work
[2] = cited from earlier work; remark: listed apart in the source
CYP1A2 = test: Induction of gene expression in human hepatocytes; conditions: data on file
[3] = coadministration of amiodarone, following 3 days of once daily dosing
[4] = coadministration of cyclosporine
[5] = coadministration of dronedarone
[6] = coadministration of erythromycin
[7] = coadministration of high-dose aspirin (325 mg)
[8] = coadministration of ketoconazole
[9] = coadministration of oral quinidine
[10] = coadministration of sustained-release verapamil
[11] = rifampin after 7 days of dosing

CN1CCc2nc(C(=O)N[C@@H]3C[C@@H](C(=O)N(C)C)CC[C@@H]3NC(=O)C(=O)Nc3ccc(Cl)cn3)sc2C1 [edoxaban]
permeability in Caco-2 cells (Caco-2 cells): poor | IC50 (CYPs): ≥ 100 µM | IC50 (OAT1): ≥ 100 µM | IC50 (OCT1): ≥ 100 µM | safety assessed by bleeding events versus warfarin [1]: improved safety | efficacy versus warfarin ([1]; non-valvular AF, deep vein thrombosis and pulmonary embolism): noninferior | increase in peak exposure to single doses of edoxaban [2, 3]: 66% | increase in total exposure to single doses of edoxaban [2, 3]: 40% | effect on peak or total exposure to edoxaban ([2]; coadministration of atorvastatin): no effect | increase in peak exposure to single doses of edoxaban [2, 4]: 74% | increase in total exposure to single doses of edoxaban [2, 4]: 73% | increase in edoxaban Cmax ([2]; coadministration of digoxin, steady state): 16% | effect on total exposure or renal clearance at steady state ([2]; coadministration of digoxin): no significant effect | increase in peak exposure to single doses of edoxaban [2, 5]: 46% | increase in total exposure to single doses of edoxaban [2, 5]: 85% | increase in peak exposure to single doses of edoxaban [2, 6]: 68% | increase in total exposure to single doses of edoxaban [2, 6]: 85% | increase in steady-state peak exposure to edoxaban [2, 7]: 34% | increase in steady-state total exposure to edoxaban [2, 7]: 30% | increase in single-dose peak exposure to edoxaban [2, 8]: 89% | increase in single-dose total exposure to edoxaban [2, 8]: 87% | effect on peak and total exposure to edoxaban ([2]; coadministration of naproxen): no effect | increase in 24-h exposure to orally dosed edoxaban [2, 9]: 77% | increase in single-dose peak exposure to orally dosed edoxaban [2, 9]: 85% | increase in 24-h exposure to single doses of edoxaban [2, 10]: 53% | increase in peak exposure to single doses of edoxaban [2, 10]: 53% | increase in exposure to edoxaban (Cmax and AUC) ([2]; concomitant P-gp inhibitor use): less than twofold | decrease in peak exposure to edoxaban ([2]; edoxaban 2 h after esomeprazole at steady state): about 33% | effect on peak and total exposure to edoxaban ([2]; enoxaparin dosed concomitantly or 12 h apart): did not affect | increase in Cmax of edoxaban ([2]; esomeprazole, 2-h stagger at steady state, 90 % CI 57.98–78.07): approximately 33% | effect on total exposure to edoxaban ([2]; esomeprazole, 2-h stagger at steady state, 90 % CI within 80–125 %): no significant effect | effect on peak and total exposure to edoxaban ([2]; esomeprazole, concurrent dosing): no significant effect | increase in peak exposure to intravenous edoxaban ([2]; orally administered quinidine): 7.5% | increase in total exposure to intravenous edoxaban ([2]; orally administered quinidine): 35% | decrease in total edoxaban exposure [2, 11]: about 34% | effect on peak edoxaban exposure [2, 11]: no effect | induction of gene expression of CYP1A2 (CYP1A2): do not induce
